Data as given in patent publication US20030013685A1, “Process for increasing the egg production and strengthening the eggshells of poultry” (priority 2000, published 2003).
Where two headings read alike, the source gives them in different places.

Legend:
laying hens = conditions: cited from earlier work
hens of ISA Brown strain [1] = assay: Laying parameters of hens after a single subcutaneous administration of tiludronic acid (disodium tiludronate) before onset of laying; format: in vivo, hen; conditions: for Age of onset of laying: hens monitored up to 55 weeks old; for Average number of eggs laid per hen and per week / Average total number of eggs laid per hen: from onset of laying up to 55 weeks old
Description: (§1) A total number of 216 hens of ISA Brown strain between 15 and 17 weeks old was divided into 3 groups for the purpose of evaluating the effects on the production of eggs of a single subcutaneous administration of tiludronic acid, in the form of its sodium salt (disodium tiludronate).
(§2) Three doses were compared: 0, 1 and 10 mg/kg (corresponding amount of tiludronic acid/kg). The tiludronic acid was administered in the form of injectable aqueous solutions such that the volume injected per bird was 1 ml per kilo of live weight. The tiludronic acid solutions were thus concentrated to 0.1% and 1% for the doses of 1 and 10 mg/kg, respectively. The control group received a placebo corresponding to water for an injectable preparation. The injections were performed subcutaneously in the region above the superficial pectoral muscle.
The hens were housed in individual cages in the same building at controlled temperature and hygrometry. Each animal was identified by a number carried on a ring attached to a wing. They received the same standard feed for laying hens, freely throughout the duration of the study. Drinking water was also distributed freely.
The average age of onset of laying for the hens in this strain is 20 weeks, with extremes of between 18 and 23 weeks. Consequently, for the hens of this study, the average delay between the treatment and the age of onset of laying had to be from 3 to 5 weeks. The duration of the study was 40 weeks. At the end of the study, the hens were 55 weeks old.
The other half of the total number of hens was monitored in order to collect the following laying parameters: age on laying the first egg and total number of eggs laid up to 55 weeks old. For each group, the average number of eggs laid per hen and per week was calculated over the entire laying period and week by week, in order to establish the laying curves.
(§3) The “age of onset of laying”, “total number of eggs laid per hen”, “number of eggs laid per hen and per week over the entire laying period”, “mechanical strength of the shell”, “thickness of the shell” and “medullary bone volume” criteria were compared by means of a single-factor variance analysis (dose factor).

hens of ISA Brown strain [2] = assay: Mechanical strength of the eggshell by quasi-static compression; format: in vivo, hen; conditions: for Mechanical strength of the shell at 23 weeks: 23 weeks old; for Mechanical strength of the shell at 54 weeks: 54 weeks old
Description: as §1, §2
(§4) Moreover, an analysis of the mechanical strength of the shell and the thickness of the mineralized part of the shell was carried out using a sample of 12 hens at the following two dates of maturity: at 23 weeks old (i.e. at the start of laying) and at 54 weeks old. The strength of the shell was measured quantitatively by a technique of quasi-static compression of the eggshell. The thickness of the shell was measured from images obtained with an electron microscope.
as §3

hens of ISA Brown strain [3] = assay: Histomorphometric examination of tarsometatarsal bone (medullary bone volume); format: in vivo, hen; conditions: for Multiplication factor of medullary bone volume: onset of laying to 55 weeks old
Description: as §1, §2
One half of the total number of hens was sacrificed on laying the first egg, in order to carry out a histomorphometric examination. This examination was performed on one of the two tarsometatarsal bones.
At 55 weeks old, all the animals were sacrificed and a histomorphometric examination of one of the tarsometatarsal bones was performed under the same conditions as on the bones of the hens sacrificed on laying of the first egg.
as §3

hens of ISA Brown strain [4] = assay: Thickness of the mineralized part of the shell from electron microscope images; format: in vivo, hen; conditions: for Thickness of the mineralized part of the shell at 23 weeks: 23 weeks old; for Thickness of the mineralized part of the shell at 54 weeks: 54 weeks old
Description: as §1, §2, §4, §3

[5] = treated groups, laying curves FIG. 1 and 2

For NCCCC(O)(P(=O)(O)O)P(=O)(O)O [alendronate, [4-amino-1-hydroxybutylidene] bisphosphonate], the Effect on laying (laying hens; 1 mg/kg subcutaneously every 2 days for 2 weeks, about 18 weeks after onset of laying, within a few days) is given as “complete stoppage of laying”, the Effect on laying (laying hens; 0.01, 0.1 or 1 mg/kg during laying) is given as “reduction, or even the stopping, of laying” and the “Effect on the quality of the shell” value (laying hens; administration during laying, more pronounced the higher the dose) is given as “adverse change in the quality of the shell”.
With O=P(O)(O)C(Sc1ccc(Cl)cc1)P(=O)(O)O [tiludronic acid, 4-chlorophenylthiomethylenebisphosphonic acid] the “Total number of eggs laid per hen versus control group (2-by-2 analysis)” value (hens of ISA Brown strain [1]; 1 mg/kg) was “significantly higher”, the “Age of onset of laying” value (hens of ISA Brown strain [1]; 1 mg/kg single subcutaneous dose) was 148.3 ± 7.8 days and the “Average number of eggs laid per hen and per week” value (hens of ISA Brown strain [1]; 1 mg/kg) was 6.53 ± 0.27. The “Average total number of eggs laid per hen” value (hens of ISA Brown strain [1]; 1 mg/kg) was 221.6 ± 11.2, the “Start of laying on average after the hens of the other 2 groups” value (hens of ISA Brown strain [1]; 1 mg/kg, no significant difference (p=0.11)) was 3 days and the “Age of onset of laying” value (hens of ISA Brown strain [1]; 10 mg/kg single subcutaneous dose) was 145.1 ± 8.8 days. For the same compound, the “Average number of eggs laid per hen and per week” value (hens of ISA Brown strain [1]; 10 mg/kg) was 6.39 ± 0.34, the “Average total number of eggs laid per hen” value (hens of ISA Brown strain [1]; 10 mg/kg) was 219.8 ± 12.6 and the “Laying peak compared with control group” value (hens of ISA Brown strain [1]; [5]) was “higher”. For the same compound, the “Slope of the laying curve compared with controls” value (hens of ISA Brown strain [1]; [5]) was “substantially smaller”, the “Change in the age of onset of laying” value (hens of ISA Brown strain [1]; treatment with tiludronic acid, 1 and 10 mg/kg) was “did not result in any change” and the “Mechanical strength of the shell at 23 weeks” value (hens of ISA Brown strain [2]; 1 mg/kg) was 39.3 ± 5.2 N. For the same compound, the “Mechanical strength of the shell at 54 weeks” value (hens of ISA Brown strain [2]; 1 mg/kg) was 28.3 ± 4.9 N, the “Mechanical strength of the shell at 23 weeks” value (hens of ISA Brown strain [2]; 10 mg/kg) was 41.5 ± 6.3 N and the “Mechanical strength of the shell at 54 weeks” value (hens of ISA Brown strain [2]; 10 mg/kg) was 30.3 ± 6.1 N. For the same compound, the “Loss of mechanical strength of the eggshells between the two maturity dates of measurement” value (hens of ISA Brown strain [2]; two treated groups (1 and 10 mg/kg), between 23 and 54 weeks) was “about −28%”, the “Volume of medullary bone of the tarsometatarsal bone at 55 weeks old” value (hens of ISA Brown strain [3]; 1 mg/kg) was 2.75 ± 2.72% and the “Volume of medullary bone of the tarsometatarsal bone at the onset of laying” value (hens of ISA Brown strain [3]; 1 mg/kg) was 0.31 ± 0.53%. For the same compound, the “Multiplication factor of medullary bone volume” value (hens of ISA Brown strain [3]; 1 mg/kg) was 9, the “Volume of medullary bone of the tarsometatarsal bone at 55 weeks old” value (hens of ISA Brown strain [3]; 10 mg/kg) was 3.53 ± 3.04% and the “Volume of medullary bone of the tarsometatarsal bone at the onset of laying” value (hens of ISA Brown strain [3]; 10 mg/kg) was 0.26 ± 0.33%. The “Multiplication factor of medullary bone volume” value (hens of ISA Brown strain [3]; 10 mg/kg) was 13, the “Thickness of the mineralized part of the shell at 23 weeks” value (hens of ISA Brown strain [4]; 1 mg/kg) was 0.256 ± 0.025 mm and the “Thickness of the mineralized part of the shell at 54 weeks” value (hens of ISA Brown strain [4]; 1 mg/kg) was 0.267 ± 0.026 mm. The “Thickness of the mineralized part of the shell at 23 weeks” value (hens of ISA Brown strain [4]; 10 mg/kg) was 0.272 ± 0.013 mm and the “Thickness of the mineralized part of the shell at 54 weeks” value (hens of ISA Brown strain [4]; 10 mg/kg) was 0.273 ± 0.021 mm.
